38 compounds from patent US12030879B2, “Sulfonyl acetamides as NLRP3 inhibitors” (Inflazome Limited, priority 2018, dated 2024) can be followed below.

Structures are written as SMILES. Structures can show the parent of a compound that is named as a salt.

In the assay the target is T1, NLRP3 (Homo sapiens, UniProt Q96P20).
T1 construct: Seed THP-1 cells (25,000 cells/well) containing 1.0 μg/ml LPS in 40 μl of RPMI medium; host or cells: THP-1 cells
The assay can be described thus: THP-1 cells pyroptosis assay. The assay is classed as cell-based. To be noted: LPS 1 μg/ml, compound 3 hrs, nigericin 5 μM 1 hr, resazurin readout. Here is the method:
THP-1 cells (ATCC #TIB-202) were grown in RPMI containing L-glutamine (Gibco #11835) supplemented with 1 mM sodium pyruvate (Sigma #S8636) and penicillin (100 units/ml)/streptomycin (0.1 mg/ml) (Sigma #P4333) in 10% Fetal Bovine Serum (FBS) (Sigma #F0804). The cells were routinely passaged and grown to confluency (10^6 cells/ml). On the day of the experiment, THP-1 cells were harvested and resuspended into RPMI medium (without FBS). The cells were then counted and viability (>90%) checked by Trypan blue (Sigma #T8154). Appropriate dilutions were made to give a concentration of 625,000 cells/ml. To this diluted cell solution was added LPS (Sigma #L4524) to give a 1 μg/ml Final Assay Concentration (FAC). 40 μl of the final preparation was aliquoted into each well of a 96-well plate. The plate thus prepared was used for compound screening.
The following method step-by-step assay was followed for compound screening. • 1. Seed THP-1 cells (25,000 cells/well) containing 1.0 μg/ml LPS in 40 μl of RPMI medium (without FBS) in 96-well, black walled, clear bottom cell culture plates coated with poly-D-lysine (VWR #734-0317) • 2. Add 5 μl compound (8 points half-log dilution, with 10 μM top dose) or vehicle (DMSO 0.1% FAC) to the appropriate wells • 3. Incubate for 3 hrs at 37° C., 5% CO2 • 4. Add 5 μl nigericin (Sigma #N7143) (FAC 5 μM) to all wells • 5. Incubate for 1 hr at 37° C., 5% CO2 • 6. At the end of the incubation period, spin plates at 300×g for 3 mins and remove supernatant • 7. Then add 50 μl of resazurin (Sigma #R7017)(FAC 100 μM resazurin in RPMI medium without FBS) and incubate plates for a further 1-2 hrs at 37° C. and 5% CO2 • 8. Plates were read in an Envision reader at Ex 560 nm and Em 590 nm • 9. IC50 data is fitted to a non-linear regression equation (log inhibitor vs response-variable slope 4-parameters) 96-well Plate Map
On the technique in general: Resazurin is reduced to fluorescent resorufin, in cell work by metabolically active cells.

T1 sequence (Q96P20 whole entry): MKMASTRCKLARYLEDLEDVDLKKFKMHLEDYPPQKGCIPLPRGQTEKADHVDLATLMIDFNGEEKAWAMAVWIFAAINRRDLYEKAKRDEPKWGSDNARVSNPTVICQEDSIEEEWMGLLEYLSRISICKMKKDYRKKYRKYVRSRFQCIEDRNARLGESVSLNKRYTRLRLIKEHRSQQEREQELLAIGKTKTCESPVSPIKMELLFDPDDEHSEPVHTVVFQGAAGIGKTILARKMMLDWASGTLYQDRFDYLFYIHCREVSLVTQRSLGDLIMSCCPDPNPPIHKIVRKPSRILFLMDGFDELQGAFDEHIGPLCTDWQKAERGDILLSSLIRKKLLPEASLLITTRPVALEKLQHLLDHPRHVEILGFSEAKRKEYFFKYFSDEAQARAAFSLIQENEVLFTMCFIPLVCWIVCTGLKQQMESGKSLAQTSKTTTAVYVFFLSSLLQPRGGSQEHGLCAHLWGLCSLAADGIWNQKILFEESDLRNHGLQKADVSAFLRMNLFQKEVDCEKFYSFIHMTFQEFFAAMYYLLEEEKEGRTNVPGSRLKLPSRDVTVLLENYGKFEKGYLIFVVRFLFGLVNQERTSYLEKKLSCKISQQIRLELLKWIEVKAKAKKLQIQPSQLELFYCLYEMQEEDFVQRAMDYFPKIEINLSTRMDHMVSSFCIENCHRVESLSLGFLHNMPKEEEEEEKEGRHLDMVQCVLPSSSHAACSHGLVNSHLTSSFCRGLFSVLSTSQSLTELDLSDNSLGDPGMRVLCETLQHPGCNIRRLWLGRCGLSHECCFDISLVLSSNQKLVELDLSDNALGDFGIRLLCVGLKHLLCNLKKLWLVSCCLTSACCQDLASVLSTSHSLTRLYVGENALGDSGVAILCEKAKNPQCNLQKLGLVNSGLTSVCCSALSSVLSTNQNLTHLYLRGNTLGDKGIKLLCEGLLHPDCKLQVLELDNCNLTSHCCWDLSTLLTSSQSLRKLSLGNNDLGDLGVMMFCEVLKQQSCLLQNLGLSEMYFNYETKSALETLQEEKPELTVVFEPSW

Consider `COc1cc(-c2cc(F)cc(C(C)C)c2CC(=O)NS(=O)(=O)c2ccc(Cl)cc2C)ccn1` [Example 136], for which the IC50 – broadly, the concentration needed to halve the response being measured – was not above 1 µM.

The compound `COc1cc(-c2cc(F)cc(C(C)C)c2C(F)C(=O)NS(=O)(=O)c2cc(C(C)(C)O)cs2)ccn1` (centres unmarked) [Example 104, 2-Fluoro-2-(4-fluoro-2-isopropyl-6-(2-methoxypyridin-4-yl)phenyl)-N-((4-(2-hydroxypropan-2-yl)thiophen-2-yl)sulfonyl)acetamide] gave an IC50 not above 5 µM.

For `COc1cc(-c2cc(F)cc(C(C)C)c2CC(=O)NS(=O)(=O)c2cnc(C(C)(C)O)s2)ccn1` [Example 108, 2-(4-Fluoro-2-isopropyl-6-(2-methoxypyridin-4-yl)phenyl)-N-((2-(2-hydroxypropan-2-yl)thiazol-5-yl)sulfonyl)acetamide], the IC50 is not above 5 µM.

Compound `COc1cc(-c2cc(F)cc(C(C)C)c2CC(=O)NS(=O)(=O)c2ccn(C(C)(C)CN(C)C)n2)ccn1` [Example 192] displayed an IC50 not above 5 µM.

With `COc1cc(-c2cc(F)cc(C(C)C)c2CC(=O)NS(=O)(=O)c2ccc(O)nc2C)ccn1` [Example 102, 2-(4-Fluoro-2-isopropyl-6-(2-methoxypyridin-4-yl)phenyl)-N-((6-hydroxy-2-methylpyridin-3-yl)sulfonyl)acetamide], the IC50 is not above 10 µM.

The compound `COc1cc(-c2cc(F)cc(C(C)C)c2CC(=O)NS(=O)(=O)c2ccc(CC#N)cc2)ccn1` [Example 187] had an IC50 not above 5 µM.

`COc1cc(-c2cc(F)cc(C(C)C)c2CC(=O)NS(=O)(=O)c2cc(CN(C)C)n(C)n2)ccn1` [Example 62, N-((5-((Dimethylamino)methyl)-1-methyl-1H-pyrazol-3-yl)sulfonyl)-2-(4-fluoro-2-isopropyl-6-(2-methoxypyridin-4-yl)phenyl) acetamide]: the IC50 was not above 5 µM.

`COc1cc(-c2cc(F)cc(C(C)C)c2CC(=O)NS(=O)(=O)c2ccc(Cl)c(C)c2)ccn1` [Example 101, N-((4-Chloro-3-methylphenyl)sulfonyl)-2-(4-fluoro-2-isopropyl-6-(2-methoxypyridin-4-yl)phenyl)acetamide]: the IC50 was not above 0.5 µM.

In turn, `COc1ccncc1-c1cc(F)cc(C(C)C)c1CC(=O)NS(=O)(=O)c1cc(C(C)(C)O)cs1` [Example 99, 2-(4-Fluoro-2-isopropyl-6-(4-methoxypyridin-3-yl)phenyl)-N-((4-(2-hydroxypropan-2-yl)thiophen-2-yl)sulfonyl)acetamide] registered a half-inhibitory concentration (IC50) not above 0.5 µM.

`C=C(C)c1csc(S(=O)(=O)NC(=O)Cc2c(C(C)C)nn(C)c2-c2ccnc(OC)c2)c1` [Example 154] had an IC50 not above 0.5 µM.

Turning to `COc1cc(-c2cc(F)cc(C(C)C)c2CC(=O)NS(=O)(=O)c2ccc(-c3cnco3)cc2)ccn1` [Example 184], the concentration for half-maximal inhibition (IC50) was not above 1 µM.

For the compound `COc1cc(-c2cc(F)cc(C(C)(C)F)c2CC(=O)NS(=O)(=O)c2cc(C(C)(C)O)cs2)ccn1` [Example 87, 2-(4-Fluoro-2-(2-fluoropropan-2-yl)-6-(2-methoxypyridin-4-yl)phenyl)-N-((4-(2-hydroxypropan-2-yl)thiophen-2-yl)sulfonyl)acetamide], the IC50 is not above 0.5 µM.

`COc1cc(-c2cc(F)cc(C(C)C)c2CC(=O)NS(=O)(=O)c2ccc3c(c2)CCCO3)ccn1` [Example 118] displayed an IC50 not above 1 µM.

In turn, `COc1cc(-c2cc(F)cc(C(C)C)c2CC(=O)NS(=O)(=O)c2cccc(C(C)(C)C#N)c2)ccn1` [Example 81, N-((3-(2-Cyanopropan-2-yl)phenyl)sulfonyl)-2-(4-fluoro-2-isopropyl-6-(2-methoxypyridin-4-yl)phenyl)acetamide] displayed an IC50 not above 5 µM.

`COc1cc(-c2cc(F)cc(C(C)C)c2CC(=O)NS(=O)(=O)c2cc(C#N)ccc2C)ccn1` [Example 35, N-((5-Cyano-2-methylphenyl)sulfonyl)-2-(4-fluoro-2-isopropyl-6-(2-methoxypyridin-4-yl)phenyl)acetamide] came in with an IC50 not above 10 µM.

Take `COC(=O)c1cc(S(=O)(=O)NC(=O)Cc2c(-c3ccnc(OC)c3)cc(F)cc2C(C)C)sc1C` [Example 176]: the IC50 is not above 0.5 µM.

In turn, `COc1cc(-c2cc(F)cc(C(C)C)c2CC(=O)NS(=O)(=O)c2ccc(C(C)(C)F)cc2C)ccn1` [Example 134] had an IC50 not above 0.5 µM.

Regarding `CC(C)c1cc(S(=O)(=O)NC(=O)Cc2c(-c3ccncc3)cc(F)cc2C(C)C)c(F)cc1F` [Example 201], the IC50 is not above 0.5 µM.

On to `COc1ccc(-c2cc(F)cc(C(C)C)c2CC(=O)NS(=O)(=O)c2ccc(C(C)(C)O)cc2C)cn1` [Example 97, 2-(4-Fluoro-2-isopropyl-6-(6-methoxypyridin-3-yl)phenyl)-N-((4-(2-hydroxypropan-2-yl)-2-methylphenyl)sulfonyl)acetamide], for which the IC50 was not above 5 µM.

`COc1cc(-c2cc(F)cc(C(C)C)c2CC(=O)NS(=O)(=O)c2cc(C(C)(C)O)co2)ccn1` [Example 40, 2-(4-Fluoro-2-isopropyl-6-(2-methoxypyridin-4-yl)phenyl)-N-((4-(2-hydroxypropan-2-yl)furan-2-yl)sulfonyl)acetamide]: the IC50 was not above 0.5 µM.

In turn, `COc1cc(-c2cc(F)cc(C(C)C)c2CC(=O)NS(=O)(=O)c2cc(C(C)(C)O)n(C)n2)ccn1` [Example 197] yielded a half-maximal inhibitory concentration (IC50) not above 5 µM.

`COc1cc(-c2cc(F)cc(C(C)C)c2CC(=O)NS(=O)(=O)c2ccc(C)c(F)c2)ccn1` [Example 125]: the IC50 was not above 0.5 µM.

As to `COc1cc(-c2cc(F)cc(C(C)C)c2CC(=O)NS(=O)(=O)c2ccc(Cl)cc2F)ccn1` [Example 4], the IC50 was not above 1 µM.

`CC(C)c1cc(F)cc(-c2ccncc2)c1CC(=O)NS(=O)(=O)c1ccc(CN(C)C)cc1` [Example 36, N-((4-((Dimethylamino)methyl)phenyl)sulfonyl)-2-(4-fluoro-2-isopropyl-6-(pyridin-4-yl)phenyl)acetamide] yielded an IC50 not above 5 µM.

As to `CC(C)c1cc(F)cc(-c2ccc(Cl)nc2)c1CC(=O)NS(=O)(=O)c1cc(C(C)(C)O)cs1` [Example 10], the IC50 is not above 5 µM.

`CNc1cc(C)c(S(=O)(=O)NC(=O)Cc2c(-c3ccnc(OC)c3)cc(F)cc2C(C)C)cc1C` [Example 155] had an IC50 not above 5 µM.

Compound `COc1cc(-c2cc(F)cc(C(C)C)c2CC(=O)NS(=O)(=O)c2ccc(=O)n(C)c2)ccn1` [Example 1, 2-(4-Fluoro-2-isopropyl-6-(2-methoxypyridin-4-yl)phenyl)-N-((1-methyl-6-oxo-,6-dihydropyridin-3-yl)sulfonyl)acetamide, potassium salt] showed an IC50 not above 10 µM.

As to `Cc1cc(C(C)(C)O)ccc1S(=O)(=O)NC(=O)Cc1c(-c2ccnc(C#N)c2)ccc2c1CCC2` [Example 189], the IC50 was not above 0.5 µM.

`COc1cc(-c2cc(F)cc(C(C)C)c2CC(=O)NS(=O)(=O)C(C)c2ccccc2)ccn1` (centres unmarked) [Example 41, 2-(4-Fluoro-2-isopropyl-6-(2-methoxypyridin-4-yl)phenyl)-N-((1-phenylethyl)sulfonyl)acetamide] gave an IC50 not above 10 µM.

In turn, `CC(C)c1cc(F)cc(-c2ccnc(O)c2)c1CC(=O)NS(=O)(=O)c1cc(C(C)(C)O)cs1` [Example 158] showed an IC50 not above 5 µM.

With `COc1cc(-c2cc(F)cc(C(C)C)c2CC(=O)NS(=O)(=O)c2cc(C(C)C)cs2)ccn1` [Example 205], the IC50 is not above 0.5 µM.

The compound `COc1cc(-c2cc(F)cc(C(C)C)c2CC(=O)NS(=O)(=O)c2ccc3c(c2)CCC3)ccn1` [Example 123] displayed a 50% inhibitory concentration (IC50) not above 0.5 µM.

In turn, `COc1cc(-c2cc(F)cc(C(C)C)c2CC(=O)NS(=O)(=O)c2cc(C(C)(C)O)n(C(C)C)n2)ccn1` [Example 196] yielded an IC50 not above 10 µM.

Take `COc1cncc(-c2cc(F)cc(C(C)C)c2CC(=O)NS(=O)(=O)c2cc(C(C)(C)O)cs2)c1` [Example 148]: the IC50 is not above 5 µM.

With `CNC(=O)c1ccc(S(=O)(=O)NC(=O)Cc2c(-c3ccnc(OC)c3)cc(F)cc2C(C)C)c(C)c1` [Example 182], the IC50 is not above 10 µM.

Turning to `COc1cc(-c2cc(F)cc(C(C)C)c2CC(=O)NS(=O)(=O)c2cccc(C#N)c2)ccn1` [Example 30, N-((3-Cyanophenyl)sulfonyl)-2-(4-fluoro-2-isopropyl-6-(2-methoxypyridin-4-yl)phenyl)acetamide], the IC50 was not above 5 µM.

`COC(=O)c1ccc(S(=O)(=O)NC(=O)Cc2c(-c3ccnc(OC)c3)cc(F)cc2C(C)C)c(C)c1` [Example 39, Methyl 4-(N-(2-(4-fluoro-2-isopropyl-6-(2-methoxypyridin-4-yl)phenyl)acetyl)sulfamoyl)-3-methylbenzoate]: the IC50 was not above 10 µM.

For `COc1cc(-c2cc(F)cc(C(C)C)c2CC(=O)NS(=O)(=O)c2ccc(Cl)cc2Cl)ccn1` [Example 13], the IC50 was not above 1 µM.
